Results reported in patent publication US6777578B2, “Hydroxyphenstatin and the prodrugs thereof” (Arizona Board of Regents, priority 2000, dated 2004).
≈ marks a conversion by molar mass, not a printed value. Like-named read-outs stand apart in the source and are kept apart here.

Legend:
P388 = experiment: Cancer cell growth inhibition, murine P388 lymphocytic leukemia; type: cell-based
Method: (§1) The following measures are used to express drug activity giving the drug dose, which reduces cell growth to a specified percentage of growth:
(§2) ED50 (P388) and GI50 (HTCL) are the drug doses needed to reduce the percent growth to 50%. There is no mathematical difference between ED50 and GI50, which are both calculated using the same formula. The only difference is historical usage.
(§3) Each drug is tested at five (5) doses: 100-10-1-0.1-0.01 μg/ml. Percent Growths are calculated for each dose. The two (or three) doses with growth values above, below, (or near to) 50% growth are used to calculate the ED50/GI50 using a linear regression formula. The log of the dose is used during the regression computation. If no dose yields a growth value under 50%, the results are expressed as: ED50>(highest dose). If no dose yields a growth value higher than 50%, then ED50<(lowest dose). Similar calculations are performed for the TGI at 0% growth, and at −50% growth for the LC50.

BXPC-3 = experiment: Human cancer cell growth inhibition, pancreas BXPC-3; type: cell-based; details: Pancreas-a
Method: as §1, §2, §3

RPMI-7951 = experiment: Human cancer cell growth inhibition, melanoma RPMI-7951; type: cell-based
Method: as §1, §2, §3

SF-295 = experiment: Human cancer cell growth inhibition, CNS SF-295; type: cell-based
Method: as §1, §2, §3

NCI-H460 = experiment: Human cancer cell growth inhibition, lung-NSC NCI-H460; type: cell-based
Method: as §1, §2, §3

DU-145 = experiment: Human cancer cell growth inhibition, prostate DU-145; type: cell-based
Method: as §1, §2, §3

Micrococcus luteus = experiment: Disk susceptibility testing, Micrococcus luteus; type: cell-based
From the text: (§4) The new substances were screened against the bacteria Stenotrophomonas maltophilia, Micrococcus luteus, Staphylococcus aureus, Escherichia coli, Enterobacter cloacae, Enterococcus faecalis, Streptococcus pneumoniae, Neisseria gonorrhoeae, and the fungi Candida albicans and Cryptococcus neoformans, according to established disk susceptibility testing protocols.

Cryptococcus neoformans = experiment: Disk susceptibility testing, Cryptococcus neoformans; type: cell-based
From the text: as §4

[1] = test system: Stenotrophomonas maltophilia; experiment: Disk susceptibility testing, Stenotrophomonas maltophilia; type: cell-based
From the text: as §4

Candida albicans = experiment: Disk susceptibility testing, Candida albicans; type: cell-based
From the text: as §4

Neisseria gonorrhoeae = experiment: Disk susceptibility testing, Neisseria gonorrhoeae; type: cell-based
From the text: as §4

[2] = test system: two fungal and eight bacterial strains; experiment: Antibiotic screening against the whole panel; type: cell-based; details: for inhibition of growth of the two fungal and eight bacterial strains tested: at 100 μg/disk
From the text: as §4

KM20L2 = experiment: Human cancer cell growth inhibition, colon KM20L2; type: cell-based
Method: as §1, §2, §3

NCI 60-cell screen = experiment: NCI 60-cell screen; type: cell-based; details: read-out: mean-panel GI50
tubulin [3] = experiment: Tubulin polymerization assay; type: biochemical; details: read-out: Inhibition of Tubulin Polymerization (μM IC50 ± SD)
Method: (§5) The tubulin polymerization and colchicine binding assays were performed as described previously (See: […]), except that Beckman DU7400/7500 spectrophotometers equipped with “high performance” temperature controllers were used in the former assay. Unlike the manual control possible with the previously used Gilford spectrophotometers, the polymerization assays required use of programs provided by MDB analytical Associates, South Plainfield, N.J., since the Beckman instruments are microprocessor controlled. The Beckman instruments were unable to maintain 0° C., and the lower temperature in the assays fluctuated between 2 and 4° C. Temperature changes were, however, more rapid than in the Gilford instruments with the jump from the lower temperature to 30° C. taking about 20 sec. and the reverse jump about 100 sec.

tubulin [4] = experiment: Colchicine binding assay; details: [3H]colchicine binding to tubulin
Method: as §5

[5] = Solubility in distilled water; type: physicochemical; details: distilled water at 25° C.
Escherichia coli = experiment: Disk susceptibility testing, Escherichia coli; type: cell-based
From the text: as §4

Staphylococcus aureus = experiment: Disk susceptibility testing, Staphylococcus aureus; type: cell-based
From the text: as §4

Molecule `COc1cc(C(=O)c2ccc(OC)c(OP(=O)(OCc3ccccc3)OCc3ccccc3)c2OP(=O)(OCc2ccccc2)OCc2ccccc2)cc(OC)c1OC` [Compound 6d, 2′,3′-O-Di-(bisbenzylphosphoryl)-hydroxyphenstatin] has a GI50 (P388) of 2.55 µg/mL (≈ 2.98 µM), a GI50 (BXPC-3) greater than 10 µg/mL and a GI50 (RPMI-7951) greater than 10 µg/mL. The GI50 (SF-295) was greater than 10 µg/mL, the GI50 (NCI-H460) was greater than 10 µg/mL and the GI50 (DU-145) was greater than 10 µg/mL. The “Minimum inhibitory Concentration (μg/disk)” value (Micrococcus luteus) was 50-100 μg/disk.

With `COc1cccc(C=O)c1OC(C)=O` [Compound 10, 2-Acetoxy-3methoxy-benzaldehyde] the “Minimum inhibitory Concentration (μg/disk)” value (Cryptococcus neoformans) was 25-50 μg/disk, the “Minimum inhibitory Concentration (μg/disk)” value [1] was 50-100 μg/disk and the melting point was 75.4 to 76.2 °C.

In the case of `COc1ccc(Br)c(C=O)c1O` [Compound 12, 2-Hydroxy-3-methoxy-6bromo-benzaldehyde], the “Minimum inhibitory Concentration (μg/disk)” value (Cryptococcus neoformans) is reported as 12.5-25 μg/disk, the “Minimum inhibitory Concentration (μg/disk)” value (Candida albicans) is reported as 50-100 μg/disk and the “Minimum inhibitory Concentration (μg/disk)” value (Neisseria gonorrhoeae) is reported as 12.5-25 μg/disk.

For `COc1ccc(Br)c(O[Si](C)(C)C(C)(C)C)c1O[Si](C)(C)C(C)(C)C` [Compound 7b, 1-Bromo-2,3-bis(tert-butyldimethylsilyl-oxy)-4-methoxy-benzene], the “inhibition of growth of the two fungal and eight bacterial strains tested” value [2] was “none of these compounds inhibited growth” and the melting point was 68.9 to 69.6 °C.

With `COc1ccc(C(=O)c2cc(OC)c(OC)c(OC)c2)c(O)c1O` [Compound 6a] the GI50 (P388; Mus musculus, read-out: GI50) was 0.315 µg/mL (≈ 0.942 µM), the GI50 (BXPC-3; Homo sapiens, read-out: GI50) was 3.3 µg/mL (≈ 9.87 µM) and the GI50 (RPMI-7951; Homo sapiens, read-out: GI50) was 0.58 µg/mL (≈ 1.73 µM). For the same molecule, the GI50 (SF-295; Homo sapiens, read-out: GI50) was 0.04 µg/mL (≈ 0.12 µM), the GI50 (NCI-H460; Homo sapiens, read-out: GI50) was 0.21 µg/mL (≈ 0.628 µM) and the GI50 (KM20L2; Homo sapiens, KM-20L2, read-out: GI50) was 1.2 µg/mL (≈ 3.59 µM). It also gave a GI50 (DU-145; Homo sapiens, read-out: GI50) of 0.048 µg/mL (≈ 0.144 µM), a GI50 (NCI 60-cell screen; 60 cell) of 167 nM and an IC50 (tubulin [3]) of 0.82 ± 0.2 µM. For the same molecule, the “% Inhibition of Colchicine Binding ± SD” value (tubulin [4]) was 77 ± 4%, the “inhibition of growth of the two fungal and eight bacterial strains tested” value [2] was “none of these compounds inhibited growth” and the melting point was 171.1 to 171.9 °C.

In the case of `COc1cc(C(=O)c2ccc(OC)c(OP(=O)([O-])[O-])c2OP(=O)([O-])[O-])cc(OC)c1OC.[Ca+2].[Ca+2]` [Compound 6h, Calcium Hydroyphenstatin Diphosphate], the solubility [5] is reported as less than 1 mg/mL.

In the case of `COc1cc(C(=O)N2CCOCC2)cc(OC)c1OC` [Compound 8a, N-(3,4,5Trimethoxybenzoyl)-morpholine], the “inhibition of growth of the two fungal and eight bacterial strains tested” value [2] is reported as “none of these compounds inhibited growth”.

For `COc1cc(C(=O)c2ccc(OC)c(OP(=O)([O-])[O-])c2OP(=O)([O-])[O-])cc(OC)c1OC.[Li+].[Li+].[Li+].[Li+]` [Compound 6f, Lithium Hydroxyphenstatin Diphosphate], the solubility [5] was 25 mg/mL.

For `COc1ccc(/C=C\c2cc(OC)c(OC)c(OC)c2)c(O)c1O` [Compound 3a, combretastatin A-1, reference compound], the IC50 (tubulin [3]) was 1.1 ± 0.07 µM and the “% Inhibition of Colchicine Binding ± SD” value (tubulin [4]) was 99.6 ± 0.7%.

Molecule `COc1cc(C(=O)c2ccc(OC)c(OP(=O)([O-])[O-])c2OP(=O)([O-])[O-])cc(OC)c1OC.[Na+].[Na+].[Na+].[Na+]` [Compound 6e, Sodium Hydroxyphenstatin Diphosphate] has a GI50 (P388) of 0.0336 µg/mL, a GI50 (BXPC-3) of 5.3 µg/mL and a GI50 (SF-295) of 0.23 µg/mL. The GI50 (NCI-H460) was 0.35 µg/mL, the GI50 (KM20L2) was 5.9 µg/mL and the GI50 (DU-145) was 0.3 µg/mL. For the same molecule, the GI50 (NCI 60-cell screen; NCI 60-cell screen, mean of panel) was 167 nM, the IC50 (tubulin [3]) was greater than 40 µM and the “antifungal and/or antibacterial action” value [2] was “did not”. For the same molecule, the solubility [5] was 100 mg/mL.

In the case of `COc1ccc(Br)c(C=O)c1OC(C)=O` [Compound 11, 2-Acetoxy-3methoxy-6bromo-benzaldehyde], the “Minimum inhibitory Concentration (μg/disk)” value (Cryptococcus neoformans) is reported as 6.25-12.5 μg/disk, the “Minimum inhibitory Concentration (μg/disk)” value (Candida albicans) is reported as 12.5-25 μg/disk and the “Minimum inhibitory Concentration (μg/disk)” value (Escherichia coli) is reported as 50-100 μg/disk. The “Minimum inhibitory Concentration (μg/disk)” value (Neisseria gonorrhoeae) was 25-50 μg/disk and the melting point was 121.6 to 123.4 °C.

In the case of `COc1cc(C(=O)c2ccc(OC)c(OC)c2OC)cc(OC)c1OC` [Compound 13, 2′,3,3′,4,4′,5-Hexamethoxybenzophenone], the “inhibition of growth of the two fungal and eight bacterial strains tested” value [2] is reported as “none of these compounds inhibited growth” and the melting point is reported as 124.6 to 125.9 °C.

For `COc1ccc(Br)c(O)c1O` [Compound 7a, 1-Bromo-2,3dihydroxy-4methoxy-benzene], the “Minimum inhibitory Concentration (μg/disk)” value [1] was 25-50 μg/disk, the “Minimum inhibitory Concentration (μg/disk)” value (Escherichia coli) was 50-100 μg/disk and the “Minimum inhibitory Concentration (μg/disk)” value (Neisseria gonorrhoeae) was less than 6.25 μg/disk. The “Minimum inhibitory Concentration (μg/disk)” value (Staphylococcus aureus) was 25-50 μg/disk and the melting point was 122.3 to 124.3 °C.

In the case of `COCOc1c(OC)ccc(C(=O)c2cc(OC)c(OC)c(OC)c2)c1OCOC` [Compound 6c, 2′,3′-Bis(methoxymethyloxy)-3,4,4′,5-tetramethoxybenzophenone], the GI50 (P388; Mus musculus, read-out: GI50) is reported as greater than 10 µg/mL, the GI50 (BXPC-3; Homo sapiens, read-out: GI50) is reported as greater than 10 µg/mL and the GI50 (RPMI-7951; Homo sapiens, read-out: GI50) is reported as greater than 10 µg/mL. The GI50 (SF-295; Homo sapiens, read-out: GI50) was greater than 10 µg/mL, the GI50 (NCI-H460; Homo sapiens, read-out: GI50) was greater than 10 µg/mL and the GI50 (DU-145; Homo sapiens, read-out: GI50) was greater than 10 µg/mL. For the same molecule, the “inhibition of growth of the two fungal and eight bacterial strains tested” value [2] was “none of these compounds inhibited growth” and the melting point was 70.2 to 71.7 °C.

For `COc1cc(C(O)c2ccc(OC)c(OC)c2OC)cc(OC)c1OC` (stereo not shown) [Compound 14, 2′,3,3′,4,4′,5Hexamethoxydiphenylcarbinol], the “inhibition of growth of the two fungal and eight bacterial strains tested” value [2] was “none of these compounds inhibited growth”.

Work on `COc1ccc(/C=C\c2cc(OC)c(OC)c(OC)c2)cc1OP(=O)(O)O` [Compound 3c] yielded an IC50 (tubulin [3]) greater than 40 µM.

For `COCOc1c(OC)ccc(C(O)c2cc(OC)c(OC)c(OC)c2)c1OCOC` (stereo not shown) [Compound 15, 2′,3′-Bis(methoxymethyloxy)-3,4,4′,5tetramethoxydiphenylcarbinol], the “inhibition of growth of the two fungal and eight bacterial strains tested” value [2] was “none of these compounds inhibited growth” and the melting point was 79.9 to 81.8 °C.
